Data from PubChem BioAssay AID624443 (The Scripps Research Institute Molecular Screening Center, 2012).
The source made the active and inactive calls.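 How the source made its calls: active means inhibition of 30% or more at 50 µM, though no compound was called active; inactive means inhibition below 30% at 50 µM.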

molecular target: Serine/threonine-protein phosphatase 2A catalytic subunit alpha isoform (Bos taurus) (UniProt P67774); assay: PP2A phosphatase inhibition, late-stage follow-up, selectivity assay for PP5 inhibitor project, biochemical, bovine brain PP2A, 33P-phosphohistone, single concentration, round 5 (AID 624443); settings: purified bovine PP2A, 33P-phosphohistone dephosphorylation, scintillation; at 50 µM; stronger effect = higher value
Sequence (P67774 whole entry, looked up, canonical isoform): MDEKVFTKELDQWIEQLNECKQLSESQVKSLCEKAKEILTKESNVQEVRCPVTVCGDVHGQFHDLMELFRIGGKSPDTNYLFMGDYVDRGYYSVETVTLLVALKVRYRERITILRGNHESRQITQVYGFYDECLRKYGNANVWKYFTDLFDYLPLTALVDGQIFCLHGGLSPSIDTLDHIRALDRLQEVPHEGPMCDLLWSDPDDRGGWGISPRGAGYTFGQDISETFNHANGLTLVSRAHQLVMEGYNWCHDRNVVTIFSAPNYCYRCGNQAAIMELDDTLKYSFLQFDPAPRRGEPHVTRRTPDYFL

inhibition	Structure (SMILES)
-5.38% (inactive)	COc1ccc(-c2n[nH]nc2C(=O)O)cc1
3.7% (inactive)	COc1cccc(-c2n[nH]nc2C(=O)O)c1
1.89% (inactive)	O=C(O)c1n[nH]nc1-c1cccc(F)c1

Further lines, the compound ahead of its results:

Structure (SMILES)	inhibition
O=C(O)c1n[nH]nc1-c1ccccc1F	3.76% (inactive)
COc1ccccc1-c1n[nH]nc1C(=O)O	24.7% (inactive)
O=C(O)c1n[nH]nc1-c1ccc(F)cc1	-0.575% (inactive)
O=C(O)c1n[nH]nc1-c1ccccc1O	0.275% (inactive)
